This is an account of results in the Deep4Chem optical property database.

Molecules are shown by their SMILES. Several values for one entry are separate records, joined by “and”; a condition that tells them apart may be missing. Equal values may be shown once.

The first data set is described as follows: solvent given as SMILES. Particulars: in CCOCC.
`CN(C)c1ccc(/C=C2\CCCC2=O)cc1`: the emission maximum is 420 nm.

The data set is the same for the next values; noted with them: in CN(C)C=O.
Regarding `CN(C)c1ccc(/C=C2\CCCC2=O)cc1`, the emission maximum is reported as 504 nm.

The compound `O=Cc1c(O)c(-c2nc3ccccc3s2)cc2ccccc12` had an emission maximum of 538 nm.

Still in this data set, the particulars now being: in CO.
`CN(C)c1ccc(/C=C2\CCCC2=O)cc1`: the emission maximum is on record as 488 nm.

For `CC1=CC(C)=[N+]2C1=C(c1ccc(N(C)C)cc1)c1c(C)cc(C)n1[B-]2(F)F`, the emission maximum is 514 nm and 511 nm.

`O=Cc1c(O)c(-c2nc3ccccc3s2)cc2ccccc12` registered an emission maximum of 525 nm.

Regarding `Cc1ccc(C2=C3C=C(I)C=[N+]3[B-](F)(F)n3cccc32)cc1`, the emission maximum was found to be 546.5 nm.

Take `CCCCCCN(CCCCCC)c1ccc(C#Cc2ccc([N+](=O)[O-])cc2)cc1`: the emission maximum is 630 nm.

Still in this data set, the particulars now being: in CS(C)=O.
As for `CC(C)[Si]1(C(C)C)c2cc(C=O)ccc2-c2ccc(N(C)C)cc21`, the emission maximum was 541 nm.

For `COc1ccc(/C=C/c2cc(/C=C/c3ccc(N(c4ccccc4)c4ccccc4)cc3)nc(/C=C/c3ccc(N(C)C)cc3)n2)cc1`, the emission maximum amounted to 485 nm.

In turn, `CN(C)c1ccc(/C=C2\CCCC2=O)cc1` came in with an emission maximum of 493 nm.

In the case of `C=Cc1ccc(-c2ccc(-c3nnc(-c4ccc(-c5nnc(-c6ccc(-c7ccc(C=C)cc7)s6)o5)cc4)o3)s2)cc1`, the emission maximum was determined as 423 nm.

The data set is the same for the next values; noted with them: in Cc1ccccc1.
For the compound `CC1(C)c2cc(-n3c4ccccc4c4ccccc43)ccc2N(c2ccc(-c3cc(-c4ccccc4)nc(-c4ccccc4)n3)cc2)c2ccc(-n3c4ccccc4c4ccccc43)cc21`, the emission maximum is given as 494.44 nm.

For `O=C(c1ccc(N2c3ccccc3Oc3ccccc32)cc1)c1ccc(N2c3ccccc3Oc3ccccc32)cc1`, the emission maximum was 509 nm.

In the case of `COc1cccc(C2=c3c(c4ccc(C(C)(C)C)cc4c4cc(C(C)(C)C)ccc34)=[N+]3C2=C(c2ccccc2)c2c(-c4cccc(OC)c4)c4c5ccc(C(C)(C)C)cc5c5cc(C(C)(C)C)ccc5c4n2[B-]3(F)F)c1`, the emission maximum came to 730 nm.

On to `COc1ccc(/C=C/c2cc(/C=C/c3ccc(N(c4ccccc4)c4ccccc4)cc3)nc(/C=C/c3ccc(N(C)C)cc3)n2)cc1`, for which the emission maximum is 411 nm.

`CN(C)c1ccc(/C=C2\CCCC2=O)cc1` gave an emission maximum of 424 nm.

`O=Cc1c(O)c(-c2nc3ccccc3s2)cc2ccccc12` gave an emission maximum of 509 nm.

The compound `C=Cc1ccc(-c2ccc(-c3nnc(-c4ccc(-c5nnc(-c6ccc(-c7ccc(C=C)cc7)s6)o5)cc4)o3)s2)cc1` had an emission maximum of 399 nm.

`c1ccc(-c2nc(-c3ccccc3)nc(-c3cc(-n4c5ccccc5c5ncccc54)c(-n4c5ccccc5c5ncccc54)c(-n4c5ccccc5c5ncccc54)c3)n2)cc1` returned an emission maximum of 435.76 nm.

The same data set, now with this note: in ClC(Cl)(Cl)Cl.
Compound `CN(C)c1ccc(/C=C2\CCCC2=O)cc1` returned an emission maximum of 431 nm.

Still in this data set, the particulars now being: in ClC(Cl)Cl.
Compound `CC[N+](CC)=c1ccc2c(-c3ccccc3C(=O)O)c3c(=O)oc4cc5c(cc4c3oc-2c1)CCCN5C` returned an emission maximum of 647 nm.

Compound `CN(C)c1ccc(/C=C2\CCCC2=O)cc1` yielded an emission maximum of 469 nm.

Consider `CCOC(=O)C1(O)c2cc3ccc4cccc5ccc(c2C(=O)N1C(C)(C)C)c3c45` (centres undefined), for which the emission maximum was determined as 387 nm.

Turning to `C(#Cc1ccncc1)C(C#Cc1ccncc1)=Cc1ccc(C=C(C#Cc2ccncc2)C#Cc2ccncc2)s1`, the emission maximum turned out to be 587 nm.

Turning to `O=Cc1c(O)c(-c2nc3ccccc3s2)cc2ccccc12`, the emission maximum came out at 505 nm.

As to `C=Cc1ccc(-c2ccc(-c3nnc(-c4ccc(-c5nnc(-c6ccc(-c7ccc(C=C)cc7)s6)o5)cc4)o3)s2)cc1`, the emission maximum turned out to be 398 nm.

Staying with this data set, now noted: in ClCCl.
`CC(C)[Si]1(C(C)C)c2cc(C=O)ccc2-c2ccc(N(C)C)cc21` came in with an emission maximum of 501 nm.

`CC(=O)c1c(N[C@H](C(=O)O)C(C)C)c2ccc(N(C)C)cc2oc1=O`: the emission maximum is on record as 446 nm.

`N#Cc1cc(/C=C/c2ccc(N(c3ccccc3)c3ccccc3)cc2)ccc1-c1ccc(/C=C/c2ccc(N(c3ccccc3)c3ccccc3)cc2)cc1C#N` came in with an emission maximum of 472 nm.

The compound `COc1cccc(C2=c3c(c4ccc(C(C)(C)C)cc4c4cc(C(C)(C)C)ccc34)=[N+]3C2=C(c2ccccc2)c2c(-c4cccc(OC)c4)c4c5ccc(C(C)(C)C)cc5c5cc(C(C)(C)C)ccc5c4n2[B-]3(F)F)c1` returned an emission maximum of 737 nm.

Consider `COc1ccc(/C=C/c2cc(/C=C/c3ccc(N(c4ccccc4)c4ccccc4)cc3)nc(/C=C/c3ccc(N(C)C)cc3)n2)cc1`, for which the emission maximum is reported as 548 nm.

Regarding `CN(C)c1ccc(/C=C2\CCCC2=O)cc1`, the emission maximum is reported as 472 nm.

`CCOCCOCCOC(=O)/C=C/C1=CC2=C(c3c(C)cc(C)cc3C)c3cccn3[B-](F)(F)[N+]2=C1`: the emission maximum was 567 nm.

`CCN(CC)c1ccc2c(-c3ccccc3C(=O)O)c3c([o+]c2c1)/C(=C/C=C/c1ccc(N(C)C)cc1)CCC3`: the emission maximum is 857 nm.

In turn, `O=Cc1c(O)c(-c2nc3ccccc3s2)cc2ccccc12` registered an emission maximum of 505 nm.

For the compound `O=c1c2cc(Cl)ccc2nc2n1[B-](F)(F)[n+]1ccccc1-2`, the emission maximum is reported as 444 nm.

As to `CCCCN(CCCC)c1ccc(C#Cc2cc(C#Cc3ccc(N(CCCC)CCCC)cc3)c(C#Cc3ccc([N+](=O)[O-])cc3)cc2C#Cc2ccc([N+](=O)[O-])cc2)cc1`, the emission maximum is listed as 552 nm.

As for `CCN(CC)c1ccc2cc(C#N)/c(=N\C(C)=O)oc2c1`, the emission maximum amounted to 460 nm.

For `CC(C)[Si](C#Cc1ccc(C#Cc2c3cc4ccccc4cc3c(C#C[Si](C(C)C)(C(C)C)C(C)C)c3cc4ccccc4cc23)cc1)(C(C)C)C(C)C`, the emission maximum came to 668 nm.

`CCCCCCN(CCCCCC)c1ccc(C#Cc2ccc([N+](=O)[O-])cc2)cc1` displayed an emission maximum of 618 nm.

The data set is the same for the next values; noted with them: in O.
Compound `CC[N+](CC)=c1ccc2c(-c3ccccc3C(=O)O)c3c(=O)oc4cc5c(cc4c3oc-2c1)CCCN5C` gave an emission maximum of 658 nm.

Still in this data set, the particulars now being: in O=P(c1ccccc1)(c1ccccc1)c1ccccc1Oc1ccccc1P(=O)(c1ccccc1)c1ccccc1.
With `c1ccc(-c2nc(-c3ccccc3)nc(-c3ccc(N4c5ccccc5C(c5ccccc5)(c5ccccc5)c5ccccc54)cc3)n2)cc1`, the emission maximum was determined as 472.98 nm.

The same data set, now with this note: in OCC(F)(F)F.
As for `Cc1ccc(C2=C3C=C(I)C=[N+]3[B-](F)(F)n3cccc32)cc1`, the emission maximum is 538.5 nm.

The same data set, now with this note: in S=C=S.
`CN(C)c1ccc(/C=C2\CCCC2=O)cc1` showed an emission maximum of 422 nm.

The data set is the same for the next values; noted with them: in c1cc(-n2c3ccccc3c3ccccc32)cc(-n2c3ccccc3c3ccccc32)c1.
In turn, `O=C(c1ccc(N2c3ccccc3Oc3ccccc32)cc1)c1ccc(N2c3ccccc3Oc3ccccc32)cc1` displayed an emission maximum of 538 nm.

Staying with this data set, now noted: in c1ccccc1.
On to `CC(C)[Si]1(C(C)C)c2cc(C=O)ccc2-c2ccc(N(C)C)cc21`, for which the emission maximum is 450 nm.

In turn, `CN(C)c1ccc(/C=C2\CCCC2=O)cc1` showed an emission maximum of 435 nm.

The data set is the same for the next values; noted with them: in c1ccncc1.
Regarding `CN(C)c1ccc(/C=C2\CCCC2=O)cc1`, the emission maximum stood at 480 nm.
